ChEMBL document CHEMBL4308841, “Synthesis, in vitro antiproliferative activity, and kinase inhibitory effects of pyrazole-containing diarylureas and diarylamides” (Eur J Med Chem, 2018)

Experiments:
CCRF-CEM = experiment: Growth inhibition of human CCRF-CEM cells incubated for 48 hrs by sulforhodamine B assay; assay type: functional, cell-based
K562 = experiment: Growth inhibition of human K562 cells incubated for 48 hrs by sulforhodamine B assay; assay type: functional, cell-based; details: K562, 48 h
NCI-H460 [1] = experiment: Growth inhibition of human NCI-H460 cells incubated for 48 hrs by sulforhodamine B assay; assay type: functional, cell-based; details: NCI-H460, 48 h
KM12 = experiment: Growth inhibition of human KM12 cells incubated for 48 hrs by sulforhodamine B assay; assay type: functional, cell-based; details: KM12, 48 h
Malme-3M = experiment: Growth inhibition of human MALME-3M cells incubated for 48 hrs by sulforhodamine B assay; assay type: functional, cell-based
UACC-62 [2] = experiment: Growth inhibition of human UACC62 cells incubated for 48 hrs by sulforhodamine B assay; assay type: functional, cell-based; details: UACC-62, 48 h
PC-3 = experiment: Growth inhibition of human PC3 cells incubated for 48 hrs by sulforhodamine B assay; assay type: functional, cell-based; details: PC-3, 48 h
OVCAR-4 [3] = experiment: Growth inhibition of human OVCAR4 cells assessed as cell growth at 0.01 uM incubated for 48 hrs by sulforhodamine B assay relative to control; assay type: functional; details: OVCAR-4, 48 h, read-out: Activity
HL-60(TB) = experiment: Growth inhibition of human HL-60(TB) cells assessed as cell growth at 0.1 uM incubated for 48 hrs by sulforhodamine B assay relative to control; assay type: functional; details: HL-60, 48 h, read-out: Activity
NCI-H226 = experiment: Growth inhibition of human NCI-H226 cells assessed as cell growth at 0.1 uM incubated for 48 hrs by sulforhodamine B assay relative to control; assay type: functional; details: NCI-H226, 48 h, read-out: Activity
NCI-H522 = experiment: Growth inhibition of human NCI-H522 cells assessed as cell growth at 0.1 uM incubated for 48 hrs by sulforhodamine B assay relative to control; assay type: functional; details: NCI-H522, 48 h, read-out: Activity
HT-29 = experiment: Growth inhibition of human HT-29 cells assessed as cell growth at 0.1 uM incubated for 48 hrs by sulforhodamine B assay relative to control; assay type: functional; details: HT-29, 48 h, read-out: Activity
M14 = experiment: Growth inhibition of human M14 cells assessed as cell growth at 0.1 uM incubated for 48 hrs by sulforhodamine B assay relative to control; assay type: functional; details: M14, 48 h, read-out: Activity
MDA-MB-231 = experiment: Growth inhibition of human MDA-MB-231 cells assessed as cell growth at 0.1 uM incubated for 48 hrs by sulforhodamine B assay relative to control; assay type: functional; details: MDA-MB-231, 48 h, read-out: Activity
MDA-MB-468 = experiment: Growth inhibition of human MDA-MB-468 cells assessed as cell growth at 0.1 uM incubated for 48 hrs by sulforhodamine B assay relative to control; assay type: functional; details: MDA-MB-468, 48 h, read-out: Activity
MOLT-4 [4] = experiment: Growth inhibition of human MOLT4 cells assessed as cell growth at 1 uM incubated for 48 hrs by sulforhodamine B assay relative to control; assay type: functional; details: MOLT-4, 48 h, read-out: Activity
A549 = experiment: Growth inhibition of human A549/ATCC cells assessed as cell growth at 1 uM incubated for 48 hrs by sulforhodamine B assay relative to control; assay type: functional; details: A549, 48 h, read-out: Activity
SNB-75 = experiment: Growth inhibition of human SNB75 cells assessed as cell growth at 1 uM incubated for 48 hrs by sulforhodamine B assay relative to control; assay type: functional; details: SNB-75, 48 h, read-out: Activity
U-251 = experiment: Growth inhibition of human U251 cells assessed as cell growth at 1 uM incubated for 48 hrs by sulforhodamine B assay relative to control; assay type: functional; details: U-251, 48 h, read-out: Activity
LOX IMVI = experiment: Growth inhibition of human LOXIMVI cells assessed as cell growth at 1 uM incubated for 48 hrs by sulforhodamine B assay relative to control; assay type: functional; details: read-out: Activity
OVCAR-4 [5] = experiment: Growth inhibition of human OVCAR4 cells assessed as cell growth at 1 uM incubated for 48 hrs by sulforhodamine B assay relative to control; assay type: functional; details: OVCAR-4, 48 h, read-out: Activity
MCF7 = experiment: Growth inhibition of human MCF7 cells assessed as cell growth at 1 uM incubated for 48 hrs by sulforhodamine B assay relative to control; assay type: functional; details: MCF7, 48 h, read-out: Activity
MOLT-4 [6] = experiment: Growth inhibition of human MOLT4 cells assessed as cell growth at 100 uM incubated for 48 hrs by sulforhodamine B assay relative to control; assay type: functional; details: MOLT-4, 48 h, read-out: Activity
SR = experiment: Growth inhibition of human SR cells assessed as cell growth at 100 uM incubated for 48 hrs by sulforhodamine B assay relative to control; assay type: functional; details: read-out: Activity
NCI-H460 [7] = experiment: Growth inhibition of human NCI-H460 cells assessed as cell growth at 100 uM incubated for 48 hrs by sulforhodamine B assay relative to control; assay type: functional; details: NCI-H460, 48 h, read-out: Activity
HCC 2998 = experiment: Growth inhibition of human HCC2998 cells assessed as cell growth at 100 uM incubated for 48 hrs by sulforhodamine B assay relative to control; assay type: functional; details: HCC 2998, 48 h, read-out: Activity
HCT-15 = experiment: Growth inhibition of human HCT15 cells assessed as cell growth at 100 uM incubated for 48 hrs by sulforhodamine B assay relative to control; assay type: functional; details: HCT-15, 48 h, read-out: Activity
UACC-62 [8] = experiment: Growth inhibition of human UACC62 cells assessed as cell growth at 100 uM incubated for 48 hrs by sulforhodamine B assay relative to control; assay type: functional; details: UACC-62, 48 h, read-out: Activity
A498 = experiment: Growth inhibition of human A498 cells assessed as cell growth at 100 uM incubated for 48 hrs by sulforhodamine B assay relative to control; assay type: functional; details: A498, 48 h, read-out: Activity
[9] = read-out: LC50 (the source's name)
[10] = read-out: pLC50 (the source's name) (converted)

COc1cc(Cl)cc(-c2nn(-c3cccc(NC(=O)c4ccc(N5CCOCC5)c(C(F)(F)F)c4)c3)cc2-c2ccncc2)c1
GI50 (CCRF-CEM; read-out: GI50): 3.58 µM
CC50 (CCRF-CEM; [9]): > 100 µM
TGI (CCRF-CEM; read-out: TGI): > 100 µM
GI50 (CCRF-CEM; read-out: pGI50 (converted)): 3.89 µM
CC50 (CCRF-CEM; [10]): > 100 µM
TGI (CCRF-CEM; read-out: pTGI (converted)): > 100 µM
GI50 (K562; read-out: GI50): 3.1 µM
LC50 (K562; read-out: LC50): > 100 µM
TGI (K562; read-out: TGI): > 100 µM
GI50 (K562; read-out: pGI50 (converted)): 3.09 µM
LC50 (K562; read-out: pLC50 (converted)): > 100 µM
TGI (K562; read-out: pTGI (converted)): > 100 µM
GI50 (NCI-H460 [1]; read-out: GI50): 4.79 µM
CC50 (NCI-H460 [1]; [9]): > 100 µM
TGI (NCI-H460 [1]; read-out: TGI): > 100 µM
GI50 (NCI-H460 [1]; read-out: pGI50 (converted)): 4.79 µM
CC50 (NCI-H460 [1]; [10]): > 100 µM
TGI (NCI-H460 [1]; read-out: pTGI (converted)): > 100 µM
GI50 (KM12; read-out: GI50): 5.38 µM
CC50 (KM12; [9]): > 100 µM
TGI (KM12; read-out: TGI): > 100 µM
GI50 (KM12; read-out: pGI50 (converted)): 5.37 µM
CC50 (KM12; [10]): > 100 µM
TGI (KM12; read-out: pTGI (converted)): > 100 µM
GI50 (Malme-3M; read-out: GI50): 2.53 µM
CC50 (Malme-3M; [9]): > 100 µM
TGI (Malme-3M; read-out: TGI): > 100 µM
GI50 (Malme-3M; read-out: pGI50 (converted)): 28.2 µM
CC50 (Malme-3M; [10]): > 100 µM
TGI (Malme-3M; read-out: pTGI (converted)): > 100 µM
IC50 (UACC-62 [2]): 9.1 µM
GI50 (UACC-62 [2]; read-out: GI50): 9.1 µM
CC50 (UACC-62 [2]; [9]): > 100 µM
TGI (UACC-62 [2]; read-out: TGI): > 100 µM
GI50 (UACC-62 [2]; read-out: pGI50 (converted)): 9.12 µM
CC50 (UACC-62 [2]; [10]): > 100 µM
TGI (UACC-62 [2]; read-out: pTGI (converted)): > 100 µM
IC50 (PC-3): 3.3 µM
GI50 (PC-3; read-out: GI50): 3.3 µM
CC50 (PC-3; [9]): > 100 µM
TGI (PC-3; read-out: TGI): > 100 µM
GI50 (PC-3; read-out: pGI50 (converted)): 3.31 µM
CC50 (PC-3; [10]): > 100 µM
TGI (PC-3; read-out: pTGI (converted)): > 100 µM
growth at 0.01 µM (OVCAR-4 [3]): 99%
growth at 0.1 µM (HL-60(TB)): 91%
growth at 0.1 µM (NCI-H226): 98%
growth at 0.1 µM (NCI-H522): 81%
growth at 0.1 µM (HT-29): 93%
growth at 0.1 µM (M14): 96%
growth at 0.1 µM (MDA-MB-231): 97%
growth at 0.1 µM (MDA-MB-468): 92%
growth at 1 µM (MOLT-4 [4]): 77%
growth at 1 µM (A549): 52%
growth at 1 µM (SNB-75): 51%
growth at 1 µM (U-251): 78%
growth at 1 µM (LOX IMVI): 95%
growth at 1 µM (OVCAR-4 [5]): 94%
growth at 1 µM (MCF7): 90%
growth at 100 µM (MOLT-4 [6]): 29%
growth at 100 µM (SR): 4%
growth at 100 µM (NCI-H460 [7]): 5%
growth at 100 µM (HCC 2998): -5%
growth at 100 µM (HCT-15): 5%
growth at 100 µM (UACC-62 [8]): 10%
growth at 100 µM (A498): 24%
